Test results published in article PMC6917776, “Discovery of a chemical probe for PRDM9” (Nature Communications, 2019).
Several values for one entry are separate records, joined by “and”; a condition that tells them apart may be missing. Equal entries are not always repeated.

Molecular target: PRDM9 (Homo sapiens, UniProt Q9NQV7)
Assay: PRDM9 cellular assay: H3K4me3 of exogenous H3-GFP in MCF7 cells (western blot)
Assay type: cell-based
Conditions: for H3K4me3/GFP - western blot: MCF7, 20 h, replicates
Experimental: HEK293T (kind gift from Sam Benchimol, York University), or MCF7 (ATCC® HTB-22™), cells were plated (12 well plates) and next day co-transfected with 0.1 (HEK293T) or 0.2 (MCF7) µg of GFP-tagged histone H3 and with 0.1 (HEK293T) or 0.2 (MCF7) µg of Flag-tagged PRDM9/PRDM9 catalytic mutant (Y357S) and 0.8 or 0.6 µg of empty vector using JetPRIME® transfection reagent, following manufacturer instructions. After 4 h media was removed and cells were treated with compounds for 20 h. Next day, cells were lysed in lysis buffer (20 mM Tris-HCl pH 8, 150 mM NaCl, 1 mM EDTA, 10 mM MgCl2, 0.5% TritonX-100, 12.5 U mL^−1 benzonase (Sigma), complete EDTA-free protease inhibitor cocktail (Roche)). After 2 min incubation at RT, SDS was added to final 1% concentration. Cell lysates were analyzed in western blot for GFP and H3K4me3 levels. All cell lines were mycoplasma negative, as determined by MycoAlert™ Mycoplasma Detection Kit (Lonza).
Total cell lysates were resolved in 4–12% Bis-Tris Protein Gels (Invitrogen) and transferred in for 1.5 h (80 V) onto PVDF membrane (Millipore) in Tris-Glycine transfer buffer containing 20% MeOH and 0.05% SDS. Blots were blocked for 1 h in blocking buffer (5% milk in PBS) and incubated with primary antibodies anti-GFP (1:3000, Clontech # 632381), anti-H3K4me3 (1:1000, Millipore, #04-745), anti-histone H3 (1:2000, #ab10799, Abcam), anti-Flag (1:5000, #F4799, Sigma) in blocking buffer (5% BSA in 0.1% Tween 20 PBS) overnight at 4 °C. After five washes with 0.1% Tween 20 PBS the blots were incubated with goat-anti rabbit (IR800) and donkey anti-mouse (IR 680) antibodies (1:5000) in Odyssey Blocking Buffer (LiCor) for 1 h at RT and washed five times with 0.1% Tween 20 PBS. The signal was read on an Odyssey scanner (LiCor) at 800 nm and 700 nm and analyzed with Image Studio Ver.5.2 software. […]
exogenous histone H3 in MCF7 cells. […]
dependent K4 trimethylation of exogenous histone H3 in MCF7 cells. Cells were co-transfected with H3-GFP and PRDM9-FLAG and treated with compounds at indicated concentrations for 20 h. (b) The graph represents non-linear fit of H3K4me3 fluorescence intensities normalized to intensities of GFP. The results are from two independent experiments (n=2). Source data are provided as a Source Data file.
(1 picture or pasted object on this page, not shown here)

Chain of PRDM9 (Q9NQV7 whole entry): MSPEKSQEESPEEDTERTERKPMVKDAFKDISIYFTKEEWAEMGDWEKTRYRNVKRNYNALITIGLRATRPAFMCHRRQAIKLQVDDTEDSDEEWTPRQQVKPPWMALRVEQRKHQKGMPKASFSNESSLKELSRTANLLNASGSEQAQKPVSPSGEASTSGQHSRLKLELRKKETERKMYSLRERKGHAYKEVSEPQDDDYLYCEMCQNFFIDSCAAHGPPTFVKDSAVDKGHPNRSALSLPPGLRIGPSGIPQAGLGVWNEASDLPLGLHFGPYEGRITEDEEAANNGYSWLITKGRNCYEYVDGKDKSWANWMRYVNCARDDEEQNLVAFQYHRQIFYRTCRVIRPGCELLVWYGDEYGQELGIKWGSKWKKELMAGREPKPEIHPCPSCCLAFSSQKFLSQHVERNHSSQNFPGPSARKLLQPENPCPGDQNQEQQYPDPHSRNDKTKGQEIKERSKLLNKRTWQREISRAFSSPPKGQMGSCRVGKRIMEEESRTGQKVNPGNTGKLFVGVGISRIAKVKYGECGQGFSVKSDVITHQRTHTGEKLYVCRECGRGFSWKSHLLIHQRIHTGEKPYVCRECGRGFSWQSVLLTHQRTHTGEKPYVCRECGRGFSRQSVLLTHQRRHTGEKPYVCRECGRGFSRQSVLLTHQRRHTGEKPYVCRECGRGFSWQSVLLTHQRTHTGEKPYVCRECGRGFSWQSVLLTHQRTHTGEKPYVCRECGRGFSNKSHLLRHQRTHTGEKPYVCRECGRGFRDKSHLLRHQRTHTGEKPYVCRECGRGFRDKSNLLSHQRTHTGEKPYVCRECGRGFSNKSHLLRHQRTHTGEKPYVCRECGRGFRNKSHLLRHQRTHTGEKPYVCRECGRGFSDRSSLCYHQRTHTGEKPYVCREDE

COc1cc(OC)cc(-c2noc(N3CCN(C)C4(CCN(c5ccnc(C)c5)CC4)C3)n2)c1 [MRK-740]
H3K4me3/GFP - western blot (0.256 µM): 72.3313 % control and 76.4161 % control | H3K4me3/GFP - western blot (0.64 µM): 45.8788 % control and 51.2576 % control | H3K4me3/GFP - western blot (1.6 µM): 25.9658 % control and 41.0483 % control | H3K4me3/GFP - western blot (4 µM): 12.0678 % control and 16.7081 % control | H3K4me3/GFP - western blot (10 µM): 8.819 % control and 7.277 % control | Inhibition of H3K4 methylation in MCF7 cells, compared with HEK293T (in words) (20 h): equipotent inhibitor of H3K4 methylation
